Reference: ChEMBL document CHEMBL1201862, “PubChem BioAssay data set” (2004)
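Step 1: Grow cells in 96-well plates. Step 2: Expose to compound for 48 hours at 5 concentrations. Step 3: Interpolate endpoints linearly; if unreached, use highest concentration. GI50 = concentration required for 50% inhibition of growth.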 Active and inactive are the calls of the source. Cut-off read from the data, not from the text of the source: active = GI50 up to about 1.1 µM and inactive = higher.

What was measured:
Test in all cases: inhibition of tumour cell growth, NCI panel, 48 h
NCI-H522 = test system: NCI-H522
SNB-75 = test system: SNB-75
IGROV-1 = test system: IGROV-1
PC-3 = test system: PC-3
CCRF-CEM = test system: CCRF-CEM
SF-268 = test system: SF-268
SK-MEL-5 = test system: SK-MEL-5
HCT-116 = test system: HCT-116
SF-539 = test system: SF-539
SK-OV-3 = test system: SK-OV-3
T47D = test system: T47D
NCI-H23 = test system: NCI-H23
Malme-3M = test system: Malme-3M
RXF 393 = test system: RXF 393
KM12 = test system: KM12
MDA-MB-435 = test system: MDA-MB-435
MDA-N = test system: MDA-N
TK-10 = test system: TK-10
HCT-15 = test system: HCT-15
HOP-92 = test system: HOP-92

Row | Structure (SMILES) | GI50 (NCI-H522) | GI50 (SNB-75) | GI50 (IGROV-1) | GI50 (PC-3) | GI50 (CCRF-CEM) | GI50 (SF-268) | GI50 (SK-MEL-5) | GI50 (HCT-116) | GI50 (SF-539) | GI50 (SK-OV-3) | GI50 (T47D) | GI50 (NCI-H23) | GI50 (Malme-3M) | GI50 (RXF 393) | GI50 (KM12) | GI50 (MDA-MB-435) | GI50 (MDA-N) | GI50 (TK-10) | GI50 (HCT-15) [µM] | GI50 (HOP-92)
1 | O=C(Nc1cccc([N+](=O)[O-])c1)c1nnn(-c2cccc([N+](=O)[O-])c2)c1O | > 100 µM (inactive) | > 100 µM (inactive) | > 100 µM (inactive) | > 100 µM (inactive) | > 100 µM (inactive) | > 100 µM (inactive) | > 100 µM (inactive) | > 100 µM (inactive) | 0.0322 µM (active) | > 100 µM (inactive) | > 100 µM (inactive) | > 100 µM (inactive) | > 100 µM (inactive) | > 100 µM (inactive) | > 100 µM (inactive) | > 100 µM (inactive) | > 100 µM (inactive) | – | – | –
2 | CCCCCC(=O)N[C@@H](c1ccccc1)C(O)C(=O)OC1C[C@@]2(O)C(OC(=O)c3ccccc3)C3[C@](C)(C(=O)[C@H](O)C(=C1C)C2(C)C)C(OC1OCC(O)C(O)C1O)C[C@H]1OC[C@@]31OC(C)=O (stereo partly drawn) | 0.245 µM (active) | 0.147 µM (active) | 3.99 µM (inactive) | 1.29 µM (inactive) | 1.57 µM (inactive) | 2.32 µM (inactive) | 1.9 µM (inactive) | 0.516 µM (active) | 0.494 µM (active) | 3.04 µM (inactive) | 1.76 µM (inactive) | 3.68 µM (inactive) | – | 1.98 µM (inactive) | 1.21 µM (inactive) | 0.202 µM (active) | 0.078 µM (active) | 63.2 µM (inactive) | > 100 | 24.6 µM (inactive)
3 | CSc1ccc(-c2cc(-c3nc4ccccc4[nH]3)no2)cc1 | 20.3 µM (inactive) | 37.6 µM (inactive) | 23.2 µM (inactive) | 32.6 µM (inactive) | 18.4 µM (inactive) | 32 µM (inactive) | 15.9 µM (inactive) | 32.5 µM (inactive) | 24.7 µM (inactive) | 70.5 µM (inactive) | 5.77 µM (inactive) | 19.1 µM (inactive) | 35 µM (inactive) | – | 9.91 µM (inactive) | 18.5 µM (inactive) | 26.9 µM (inactive) | 36.6 µM (inactive) | 9.62 | 50.6 µM (inactive)
4 | CCOP(=O)(OCC)/C(=C\n1ccc(=O)[nH]c1=S)C(=O)OC | > 100 µM (inactive) | > 100 µM (inactive) | > 100 µM (inactive) | > 100 µM (inactive) | > 100 µM (inactive) | > 100 µM (inactive) | > 100 µM (inactive) | > 100 µM (inactive) | > 100 µM (inactive) | > 100 µM (inactive) | > 100 µM (inactive) | > 100 µM (inactive) | > 100 µM (inactive) | > 100 µM (inactive) | > 100 µM (inactive) | > 100 µM (inactive) | > 100 µM (inactive) | – | > 100 | –
5 | O=C1/C(=C/c2ccccc2)CN(C(=O)OCc2ccccc2)C/C1=C\c1ccccc1 | 6.76 µM (inactive) | > 31.6 µM (inactive) | 14.1 µM (inactive) | 15 µM (inactive) | 2.08 µM (inactive) | 13.8 µM (inactive) | 16.8 µM (inactive) | 0.345 µM (active) | 18.3 µM (inactive) | 24.4 µM (inactive) | 41.4 µM (inactive) | 15.6 µM (inactive) | 30.4 µM (inactive) | 13.4 µM (inactive) | 5.47 µM (inactive) | – | 3.06 µM (inactive) | 27.5 µM (inactive) | 10.9 | > 69.5 µM (inactive)
6 | OCC(O)C(O)C(C=NNc1ncnc2ccc(Br)cc12)=NNc1ncnc2ccc(Br)cc12 (stereo not drawn) | 0.383 µM (active) | 2.46 µM (inactive) | 0.726 µM (active) | 4.35 µM (inactive) | – | 1.29 µM (inactive) | 0.968 µM (active) | 0.358 µM (active) | 1.94 µM (inactive) | 1.85 µM (inactive) | 0.373 µM (active) | – | 0.378 µM (active) | 2.14 µM (inactive) | 2.72 µM (inactive) | 3.38 µM (inactive) | 3.63 µM (inactive) | 8.45 µM (inactive) | – | 2.24 µM (inactive)
7 | O=C(c1ccccc1)c1c(-c2ccccc2)n(-c2ccccc2)[nH]c(=O)c1=O | 0.361 µM (active) | – | 54.5 µM (inactive) | 18.9 µM (inactive) | 15.5 µM (inactive) | 48.6 µM (inactive) | > 100 µM (inactive) | > 100 µM (inactive) | 20.2 µM (inactive) | 34.2 µM (inactive) | > 100 µM (inactive) | 75 µM (inactive) | 22.5 µM (inactive) | – | 54.3 µM (inactive) | 28.2 µM (inactive) | 50.1 µM (inactive) | 42.5 µM (inactive) | 78.2 | 31.2 µM (inactive)
8 | CC(C)C1OC(=O)C=C1Sc1ccccc1 (stereo not drawn) | > 100 µM (inactive) | > 100 µM (inactive) | > 100 µM (inactive) | > 100 µM (inactive) | > 100 µM (inactive) | > 100 µM (inactive) | > 100 µM (inactive) | > 100 µM (inactive) | > 100 µM (inactive) | > 100 µM (inactive) | > 100 µM (inactive) | – | 80.7 µM (inactive) | > 100 µM (inactive) | > 100 µM (inactive) | > 100 µM (inactive) | > 100 µM (inactive) | > 100 µM (inactive) | > 100 | –
9 | COc1ccc2c(c1)C1OCCNC1CC2 (stereo not drawn) | > 100 µM (inactive) | > 100 µM (inactive) | > 100 µM (inactive) | > 100 µM (inactive) | > 100 µM (inactive) | > 100 µM (inactive) | > 100 µM (inactive) | > 100 µM (inactive) | > 100 µM (inactive) | > 100 µM (inactive) | > 100 µM (inactive) | > 100 µM (inactive) | > 100 µM (inactive) | > 100 µM (inactive) | > 100 µM (inactive) | > 100 µM (inactive) | > 100 µM (inactive) | > 100 µM (inactive) | > 100 | –
10 | CC(C)Oc1c(-c2c(OC(C)C)c(=O)c2=O)c(=O)c1=O | > 20.1 µM (inactive) | 48 µM (inactive) | > 31.7 µM (inactive) | – | > 52 µM (inactive) | > 47.3 µM (inactive) | > 41.6 µM (inactive) | > 32.4 µM (inactive) | > 65.8 µM (inactive) | > 100 µM (inactive) | > 100 µM (inactive) | > 52.8 µM (inactive) | 0.344 µM (active) | > 56.6 µM (inactive) | > 36.5 µM (inactive) | > 30.2 µM (inactive) | > 29 µM (inactive) | > 70.1 µM (inactive) | > 60.5 | > 100 µM (inactive)
11 | CCN(CC)c1ccc(/C=C/c2ccnc3ccccc23)cc1 | – | > 100 µM (inactive) | > 100 µM (inactive) | > 100 µM (inactive) | > 100 µM (inactive) | > 100 µM (inactive) | > 100 µM (inactive) | > 100 µM (inactive) | > 100 µM (inactive) | > 100 µM (inactive) | > 100 µM (inactive) | > 100 µM (inactive) | > 100 µM (inactive) | > 100 µM (inactive) | > 100 µM (inactive) | > 100 µM (inactive) | > 100 µM (inactive) | > 100 µM (inactive) | > 100 | > 100 µM (inactive)
12 | O=C1N=C(c2ccccc2)OC1C(=O)c1ccccc1 (stereo not drawn) | > 100 µM (inactive) | > 100 µM (inactive) | 46.5 µM (inactive) | > 100 µM (inactive) | > 100 µM (inactive) | > 100 µM (inactive) | > 100 µM (inactive) | > 100 µM (inactive) | – | > 100 µM (inactive) | > 100 µM (inactive) | > 100 µM (inactive) | – | > 100 µM (inactive) | > 100 µM (inactive) | > 100 µM (inactive) | > 100 µM (inactive) | > 100 µM (inactive) | > 100 | –
13 | S=C(N1CCN(c2ccccc2)CC1)N1CCN(c2ccccc2)CC1 | > 100 µM (inactive) | 27.2 µM (inactive) | 90.8 µM (inactive) | > 100 µM (inactive) | 24.4 µM (inactive) | > 100 µM (inactive) | 95.1 µM (inactive) | 81.8 µM (inactive) | – | > 100 µM (inactive) | > 100 µM (inactive) | > 100 µM (inactive) | > 100 µM (inactive) | > 100 µM (inactive) | > 100 µM (inactive) | > 100 µM (inactive) | 89.5 µM (inactive) | > 100 µM (inactive) | > 100 | –
14 | OCC1OC(NCCNCCNC2OC(CO)C(O)C(O)C2O)C(O)C(O)C1O (stereo not drawn) | > 100 µM (inactive) | > 100 µM (inactive) | > 100 µM (inactive) | > 100 µM (inactive) | > 100 µM (inactive) | > 100 µM (inactive) | > 100 µM (inactive) | > 100 µM (inactive) | > 100 µM (inactive) | > 100 µM (inactive) | > 100 µM (inactive) | > 100 µM (inactive) | > 100 µM (inactive) | > 100 µM (inactive) | – | – | > 100 µM (inactive) | > 100 µM (inactive) | > 100 | > 100 µM (inactive)
15 | CC1=CC(=O)C(=C(C)C)CC1 | > 100 µM (inactive) | > 100 µM (inactive) | > 100 µM (inactive) | > 100 µM (inactive) | 28.9 µM (inactive) | > 100 µM (inactive) | > 100 µM (inactive) | > 100 µM (inactive) | – | > 100 µM (inactive) | > 100 µM (inactive) | > 100 µM (inactive) | > 100 µM (inactive) | 26.1 µM (inactive) | > 100 µM (inactive) | > 100 µM (inactive) | > 100 µM (inactive) | > 100 µM (inactive) | > 100 | –
